Experiment: Solubility tests of monomer 1 in the monomer solution with auxiliary surfactants (additives)
Type: physicochemical
Procedure: In order to solubilize monomer 1 the monomer was first dissolved in ethanol and then added to the monomer solution. This approach is used for AIBN, which has a low solubility in the monomer solution, too. […] Therefore, the use of auxiliary surfactants (additives) was tested.
These tests were done in first instance with 0.1 mol % of 1-4.

Result (solubility of monomer 1) (Additive 1 Aromox C/12 2-20 eq, additive 2 Disponil A 1080 0-5 eq, same recipe): Not soluble***
Result (solubility of monomer 1) (Additive 1 Aromox MCD 2-20 eq, additive 2 Disponil A 1080 0-5 eq, same recipe): Not soluble***
Result (solubility of monomer 1) (Additive 1 C14TAB 2-20 eq, additive 2 Disponil A 1080 0-5 eq, same recipe): Not soluble***
Result (solubility of monomer 1) (Additive 1 Dehyquart E-CA 2-20 eq, additive 2 Disponil A 1080 0-5 eq, same recipe): Not soluble***
Result (solubility of monomer 1) (Additive 1 Deriphat 160 C 2-20 eq, additive 2 Disponil A 1080 0-5 eq, same recipe): Not soluble***
Result (solubility of monomer 1) (Additive 1 Disponil A 1080 2-20 eq, no additive 2, same recipe): Partly dissolved
Result (solubility of monomer 1) (Additive 1 Glucopon 225DK 2-20 eq, additive 2 Disponil A 1080 0-5 eq, same recipe): Not soluble***
Result (solubility of monomer 1) (Additive 1 Lutensol AO 11 2-20 eq, additive 2 Disponil A 1080 0-5 eq, same recipe): Not soluble***
Result (solubility of monomer 1) (Additive 1 Lutensol AT 18 2-20 eq, additive 2 Disponil A 1080 0-5 eq, same recipe): Not soluble***
Result (solubility of monomer 1) (Additive 1 Lutensol TO 129 2-20 eq, additive 2 Disponil A 1080 0-5 eq, same recipe): Not soluble***
Result (solubility of monomer 1) (Additive 1 Lutensol XP 100 2-20 eq, additive 2 Disponil A 1080 0-5 eq, same recipe): Not soluble***
Result (solubility of monomer 1) (Additive 1 SDS 2-20 eq, additive 2 Disponil A 1080 0-5 eq, same recipe): Not soluble***
Result (solubility of monomer 1) (Additive 1 Texapon NSO 2-20 eq, additive 2 Disponil A 1080 0-5 eq, same recipe): Not soluble***
Result (solubility of monomer 1) (no additive, recipe 27 mol % sodium acrylate, 72.9 mol % acrylamide, 0.1 mol % 1): Not soluble***
Structure (SMILES): C=C(C)C(=O)NCCC[N+](C)(C)CCCCCCCCCCCC [Monomer 1]

— US11613686B2, “Associative copolymers with hydrophobic quaternized (meth)acrylamide and (meth)acrylic acid derivatives” (BASF SE, priority 2018, dated 2023)
